The values below are quoted from earlier work in patent US12629325B2, “Increased solubilization of Bemotrizinol” (DSM IP ASSETS B.V., priority 2020, dated 2026).

Read-outs that look alike come from different tables or passages of the source.

The conditions of the series: for Solubility in esters: particularly C12-15 alkyl benzoate.
The mark [1] stands for this setting: listed as UV-filter of the formula (I).

Consider `CCCCC(CC)COc1ccc(-c2nc(-c3ccc(OC)cc3)nc(-c3ccc(OCC(CC)CCCC)cc3O)n2)c(O)c1` (stereo not drawn) [Bemotrizinol, 2,4-Bis-{[4-(2-ethyl-hexyloxy)-2-hydroxy]-phenyl}-6-(4-methoxyphenyl)-1,3,5-triazine], for which the Solubility in alkanes result is on record as “very low”, the Solubility in esters entry is listed as “moderate solubility” and the Solubility in water result is on record as “very low”. Further, under setting [1], the Solubility in alkanes result is given as “insoluble”, the Solubility in esters result was “very soluble” and the Solubility in water entry is “insoluble”.
